Data published in article PMC6584481, “Quercetin protects rats from catheter‐related Staphylococcus aureus infections by inhibiting coagulase activity” (Journal of Cellular and Molecular Medicine, 2019).

Columns and labels:
Type in all cases: binding
Coagulase (Coa) [1] = molecular target: T1, Coagulase (Coa) (Staphylococcus aureus, UniProt P17855, H230A); assay: fluorescence spectroscopy quenching (KA); conditions: read-out: H228A (converted)
T1 sequence (P17855 27-715 H230A): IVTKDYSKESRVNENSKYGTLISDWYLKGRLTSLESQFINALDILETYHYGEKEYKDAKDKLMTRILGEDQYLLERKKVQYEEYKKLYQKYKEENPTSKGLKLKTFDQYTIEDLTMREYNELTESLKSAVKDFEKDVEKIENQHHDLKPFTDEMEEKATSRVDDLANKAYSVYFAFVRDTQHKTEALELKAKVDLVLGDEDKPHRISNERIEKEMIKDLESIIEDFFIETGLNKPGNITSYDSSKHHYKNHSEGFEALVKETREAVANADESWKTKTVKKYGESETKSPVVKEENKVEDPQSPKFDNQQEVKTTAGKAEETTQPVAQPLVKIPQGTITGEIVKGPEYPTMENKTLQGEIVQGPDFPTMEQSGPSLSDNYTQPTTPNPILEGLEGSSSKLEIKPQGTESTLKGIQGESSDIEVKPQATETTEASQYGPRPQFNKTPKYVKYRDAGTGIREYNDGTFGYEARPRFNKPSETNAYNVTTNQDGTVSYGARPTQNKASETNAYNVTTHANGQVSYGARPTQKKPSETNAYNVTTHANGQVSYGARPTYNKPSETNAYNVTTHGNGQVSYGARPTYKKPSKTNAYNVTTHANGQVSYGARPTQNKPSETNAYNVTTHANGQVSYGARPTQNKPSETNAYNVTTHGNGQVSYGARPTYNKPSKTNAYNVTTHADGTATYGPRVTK

Coagulase (Coa) [2] = molecular target: Coagulase (Coa) (Staphylococcus aureus, UniProt P17855); assay: fluorescence spectroscopy quenching (KA); thermal shift of […]°C; plasma/blood coagulation inhibition with recombinant Coa; conditions: read-out: WT-Coa (converted)
Coagulase (Coa) [3] = molecular target: T2, Coagulase (Coa) (Staphylococcus aureus, UniProt P17855, L223A); assay: fluorescence spectroscopy quenching (KA); conditions: read-out: L221A (converted)
T2 sequence (P17855 27-715 L223A): T1 sequence (P17855 27-715 H230A)

SMILES: O=c1c(O)c(-c2ccc(O)c(O)c2)oc2cc(O)cc(O)c12 [quercetin, 3,3′,4′,5,7‐pentahydroxyflavone]
- Kd (Coagulase (Coa) [1]): 25 µM
- Kd (Coagulase (Coa) [2]): 21.7 µM
- Kd (Coagulase (Coa) [3]): 32.3 µM
